From US6323014A, “Method and composition for enhancing the activity of an enzyme” (Unilever Home & Personal Care division of Conopco, Inc., priority 1999, dated 2001)

Tests used:
[1] = test system: phenol oxidizing enzyme from Acremonium murorum; assay: Bleaching of tomato stains on cotton swatches, phenol oxidizing enzyme/enhancer system, detergent formulation wash solution; format: biochemical; details: enhancer 250 μM, detergent formulation 2 g/l, 30 minutes, 30° C.; for ΔE, stain bleach performance, Oily Tomato Stain, With enzyme / ΔE, stain bleach performance, Tomato Extract, With enzyme: enzyme 20 mg/l
Protocol: (§1) The potential of the various enhancer to boost the bleach performance of phenol oxidizing enzyme was assessed by washing cotton swatches soiled with tomato stains. Two different bleach monitors were used:
(§2) Tomato extract material was prepared by acetone extraction of the chromophores from concentrated tomato paste. For the preparation of the stains, the colored acetone solution was applied to cotton swatches.
(§3) Oily tomato stains were prepared by applying heated concentrated tomato paste, to which 5 wt % Soya oil was added, to cotton swatches.
(§4) The pH of the wash solution was set to pH 9. Purified phenol oxidizing enzyme from Acremonium murorum was added to the wash solution at 20 mg/l. The enzyme from Acremonium murorum is decribed in WO-A-00/05349 (Unilever). The enhancers were all dosed at 250 μM. The wash solution was 50 mM Tris buffer.
(§5) The swatches were washed during 30 minutes, at 30° C. After the wash, the swatches were tumble-dried and the reflectance spectra were measured using a Minolta spectrometer. The color differences between the swatch before and after the wash data were expressed in the CIELAB L*a*b* color space. In this color space, L* indicates lightness and a* and b* are the chromaticity coordinates. Color differences between two swatches are expressed as ΔE, which is calculated from the following equation: […]
Example 1 was repeated, using this time as wash solution a detergent formulation having the composition shown below, at a concentration of 2 g/l. The amounts are given in weight %.

[2] = test system: phenol oxidizing enzyme from Acremonium murorum; assay: Bleaching of tomato stains on cotton swatches, phenol oxidizing enzyme/enhancer system, 50 mM Tris buffer wash solution; format: biochemical; details: enhancer 250 μM, 50 mM Tris buffer pH 9, 30 minutes, 30° C.; for ΔE, stain bleach performance, Oily Tomato Stain, With enzyme / ΔE, stain bleach performance, Tomato Extract, With enzyme: enzyme 20 mg/l
Protocol: as §1, §2, §3, §4, §5

Compound	ΔE, stain bleach performance, Oily Tomato Stain, With enzyme [1]	ΔE, stain bleach performance, Oily Tomato Stain, Without enzyme [1]	ΔE, stain bleach performance, Tomato Extract, With enzyme [1]	ΔE, stain bleach performance, Tomato Extract, Without enzyme [1]	ΔE, stain bleach performance, Oily Tomato Stain, With enzyme [2]	ΔE, stain bleach performance, Oily Tomato Stain, Without enzyme [2]	ΔE, stain bleach performance, Tomato Extract, With enzyme [2]	ΔE, stain bleach performance, Tomato Extract, Without enzyme [2]
Cc1ccc(S(=O)(=O)Nc2cc(Br)c(O)c(Br)c2Br)cc1 [3Brphenol3MeBSA, N-(2,3,5-tribromo-4-hydroxyphenyl) -4-Methyl benzenesulfonamide]	11.71	6.87	27.57	12.86	6.21	1.56	19.59	10.86
O=S(=O)(Nc1cc(Br)c(O)c(Br)c1Br)c1ccccc1 [3BrphenolBSA, N-(2,3,5-tribromo-4-hydroxyphenyl)-benzenesulfonamide]	10.95	6.89	26.87	12.99	5.62	4.18	19.97	10.33
